Laboratory results taken from ChEMBL document CHEMBL1154899, “Synthesis and biological evaluation of caffeic acid 3,4-dihydroxyphenethyl ester” (J Nat Prod, 2010).

Assays:
Assay type in all cases: functional
SNB-75 = assay: Antiproliferative activity against human SNB75 cells assessed as cell growth at 50 uM by SRB assay; conditions: read-out: Activity
MOLT-4 [1] = assay: Antiproliferative activity against human MOLT4 cells assessed as cell growth at 50 uM by SRB assay; conditions: read-out: Activity
SK-MEL-28 [2] = assay: Antiproliferative activity against human SK-MEL-28 cells assessed as cell growth at 500 uM by SRB assay; conditions: read-out: Activity
UO-31 [3] = assay: Antiproliferative activity against human UO31 cells assessed as cell growth at 500 uM by SRB assay; conditions: read-out: Activity
MOLT-4 [4] = assay: Antiproliferative activity against human MOLT4 cells assessed as cell growth at 500 uM by SRB assay; conditions: read-out: Activity
HL-60(TB) = assay: Antiproliferative activity against human HL-60(TB) cells assessed as cell growth at 50 uM by SRB assay; conditions: read-out: Activity
UACC-62 = assay: Antiproliferative activity against human UACC62 cells assessed as cell growth at 0.5 uM by SRB assay; conditions: read-out: Activity
SN12C = assay: Antiproliferative activity against human SN12C cells assessed as cell growth at 50 uM by SRB assay; conditions: read-out: Activity
UO-31 [5] = assay: Antiproliferative activity against human UO31 cells by SRB assay
CCRF-CEM [6] = assay: Antiproliferative activity against human CCRF-CEM cells assessed as cell growth at 500 uM by SRB assay; conditions: read-out: Activity
U-251 = assay: Antiproliferative activity against human U251 cells assessed as cell growth at 5 uM by SRB assay; conditions: read-out: Activity
SF-295 = assay: Antiproliferative activity against human SF295 cells assessed as cell growth at 500 uM by SRB assay; conditions: read-out: Activity
LOX IMVI = assay: Antiproliferative activity against human LOXIMVI cells by SRB assay
COLO 205 = assay: Antiproliferative activity against human COLO205 cells by SRB assay
SK-MEL-2 [7] = assay: Antiproliferative activity against human SK-MEL-2 cells assessed as cell growth at 500 uM by SRB assay; conditions: read-out: Activity
HCT-15 [8] = assay: Antiproliferative activity against human HCT15 cells assessed as cell growth at 500 uM by SRB assay; conditions: read-out: Activity
CCRF-CEM [9] = assay: Antiproliferative activity against human CCRF-CEM cells assessed as cell growth at 0.5 uM by SRB assay; conditions: read-out: Activity
NCI-H460 = assay: Antiproliferative activity against human NCI-H460 cells by SRB assay
NCI-H322M = assay: Antiproliferative activity against human NCI-H322M cells assessed as cell growth at 5 uM by SRB assay; conditions: read-out: Activity
NCI-H522 = assay: Antiproliferative activity against human NCI-H522 cells assessed as cell growth at 50 uM by SRB assay; conditions: read-out: Activity
MDA-MB-231 = assay: Antiproliferative activity against human MDA-MB-231 cells assessed as cell growth at 50 uM by SRB assay; conditions: read-out: Activity
A549 [10] = assay: Antiproliferative activity against human A549 cells assessed as cell growth at 0.5 uM by SRB assay; conditions: read-out: Activity
HCT-15 [11] = assay: Antiproliferative activity against human HCT15 cells by SRB assay
SW-620 = assay: Antiproliferative activity against human SW620 cells by SRB assay
HCC 2998 [12] = assay: Antiproliferative activity against human HCC2998 cells assessed as cell growth at […] by SRB assay; conditions: read-out: Activity
SK-MEL-28 [13] = assay: Antiproliferative activity against human SK-MEL-28 cells assessed as cell growth at 50 uM by SRB assay; conditions: read-out: Activity
UO-31 [14] = assay: Antiproliferative activity against human UO31 cells assessed as cell growth at 5 mM by SRB assay; conditions: read-out: Activity
MDA-MB-435 [15] = assay: Antiproliferative activity against human MDA-MB-435 cells assessed as cell growth at 500 uM by SRB assay; conditions: read-out: Activity
MDA-MB-435 [16] = assay: Antiproliferative activity against human MDA-MB-435 cells assessed as cell growth at 5 mM by SRB assay; conditions: read-out: Activity
786-0 = assay: Antiproliferative activity against human 786-0 cells assessed as cell growth at 50 uM by SRB assay; conditions: read-out: Activity
SK-MEL-2 [17] = assay: Antiproliferative activity against human SK-MEL-2 cells assessed as cell growth at 5 uM by SRB assay; conditions: read-out: Activity
NCI-H226 = assay: Antiproliferative activity against human NCI-H226 cells assessed as cell growth at 0.5 uM by SRB assay; conditions: read-out: Activity
HT-29 = assay: Antiproliferative activity against human HT-29 cells by SRB assay
OVCAR-4 = assay: Antiproliferative activity against human OVCAR4 cells by SRB assay
OVCAR-3 = assay: Antiproliferative activity against human OVCAR-3 cells assessed as cell growth at 5 uM by SRB assay; conditions: read-out: Activity
A549 [18] = assay: Antiproliferative activity against human A549 cells by SRB assay
HCC 2998 [19] = assay: Antiproliferative activity against human HCC2998 cells assessed as cell growth at 50 uM by SRB assay; conditions: read-out: Activity
OVCAR-5 = assay: Antiproliferative activity against human OVCAR5 cells by SRB assay
OVCAR-8 = assay: Antiproliferative activity against human OVCAR8 cells assessed as cell growth at 500 uM by SRB assay; conditions: read-out: Activity
[20] = read-out: LC50 (the source's name)
[21] = read-out: pLC50 (the source's name) (converted)

Q: What does the source list for O=C(/C=C/c1ccc(O)c(O)c1)OCCc1ccc(O)c(O)c1?
A: growth at 50 µM (SNB-75): 72%; growth at 50 µM (MOLT-4 [1]): 89%; growth at 500 µM (SK-MEL-28 [2]): 55%; growth at 500 µM (UO-31 [3]): 23%; growth at 500 µM (MOLT-4 [4]): 39%; growth at 50 µM (HL-60(TB)): 82%; growth at 0.5 µM (UACC-62): 91%; growth at 50 µM (SN12C): 81%; GI50 (UO-31 [5]; read-out: GI50): 1.75 µM; CC50 (UO-31 [5]; [20]): > 50 µM; TGI (UO-31 [5]; read-out: TGI): 21.1 µM; GI50 (UO-31 [5]; read-out: pGI50 (converted)): 1.66 µM; CC50 (UO-31 [5]; [21]): > 50.1 µM; TGI (UO-31 [5]; read-out: pTGI (converted)): 20.9 µM; growth at 500 µM (CCRF-CEM [6]): 1%; growth at 5 µM (U-251): 97%; growth at 500 µM (SF-295): 92%; GI50 (LOX IMVI; read-out: GI50): 6.38 µM; CC50 (LOX IMVI; [20]): > 50 µM; TGI (LOX IMVI; read-out: TGI): 35.1 µM; GI50 (LOX IMVI; read-out: pGI50 (converted)): 6.31 µM; CC50 (LOX IMVI; [21]): > 50.1 µM; TGI (LOX IMVI; read-out: pTGI (converted)): 35.5 µM; GI50 (COLO 205; read-out: GI50): 18.8 µM; CC50 (COLO 205; [20]): > 50 µM; TGI (COLO 205; read-out: TGI): > 50 µM; GI50 (COLO 205; read-out: pGI50 (converted)): 18.6 µM; CC50 (COLO 205; [21]): > 50.1 µM; TGI (COLO 205; read-out: pTGI): > 50.1 µM; growth at 500 µM (SK-MEL-2 [7]): 38%; growth at 500 µM (HCT-15 [8]): 38%; growth at 0.5 µM (CCRF-CEM [9]): 95%; GI50 (NCI-H460): 14.8 µM; CC50 (NCI-H460; [20]): > 50 µM; TGI (NCI-H460; read-out: TGI): > 50 µM; CC50 (NCI-H460; [21]): > 50.1 µM; TGI (NCI-H460; read-out: pTGI): > 50.1 µM; growth at 5 µM (NCI-H322M): 92%; growth at 50 µM (NCI-H522): 77%; growth at 50 µM (MDA-MB-231): 97%; growth at 0.5 µM (A549 [10]): 105%; GI50 (HCT-15 [11]; read-out: GI50): 2.25 µM; CC50 (HCT-15 [11]; [20]): > 50 µM; TGI (HCT-15 [11]; read-out: TGI): > 50 µM; GI50 (HCT-15 [11]; read-out: pGI50 (converted)): 1.41 µM; CC50 (HCT-15 [11]; [21]): > 50.1 µM; TGI (HCT-15 [11]; read-out: pTGI): > 50.1 µM; GI50 (SW-620; read-out: GI50): 10.2 µM; CC50 (SW-620; [20]): > 50 µM; TGI (SW-620; read-out: TGI): > 50 µM; GI50 (SW-620; read-out: pGI50 (converted)): 10.2 µM; CC50 (SW-620; [21]): > 50.1 µM; TGI (SW-620; read-out: pTGI): > 50.1 µM; growth (HCC 2998 [12]): 18%; growth at 50 µM (SK-MEL-28 [13]): 93%; growth at 5000 µM (UO-31 [14]): -14%; growth at 500 µM (MDA-MB-435 [15]): 48%; growth at 5000 µM (MDA-MB-435 [16]): 17%; growth at 50 µM (786-0): 94%; growth at 5 µM (SK-MEL-2 [17]): 95%; growth at 0.5 µM (NCI-H226): 97%; GI50 (HT-29; read-out: GI50): 28.5 µM; CC50 (HT-29; [20]): > 50 µM; TGI (HT-29; read-out: TGI): > 50 µM; GI50 (HT-29; read-out: pGI50 (converted)): 28.2 µM; CC50 (HT-29; [21]): > 50.1 µM; TGI (HT-29; read-out: pTGI): > 50.1 µM; GI50 (OVCAR-4): 7.37 µM; CC50 (OVCAR-4; [20]): > 50 µM; TGI (OVCAR-4; read-out: TGI): > 50 µM; CC50 (OVCAR-4; [21]): > 50.1 µM; TGI (OVCAR-4; read-out: pTGI): > 50.1 µM; growth at 5 µM (OVCAR-3): 99%; GI50 (A549 [18]; read-out: GI50): 17.7 µM; CC50 (A549 [18]; [20]): > 50 µM; TGI (A549 [18]; read-out: TGI): > 50 µM; GI50 (A549 [18]; read-out: pGI50 (converted)): 17.8 µM; CC50 (A549 [18]; [21]): > 50.1 µM; TGI (A549 [18]; read-out: pTGI): > 50.1 µM; growth at 50 µM (HCC 2998 [19]): 98%; GI50 (OVCAR-5; read-out: GI50): > 50 µM; CC50 (OVCAR-5; [20]): > 50 µM; TGI (OVCAR-5; read-out: TGI): > 50 µM; GI50 (OVCAR-5; read-out: pGI50 (converted)): > 50.1 µM; CC50 (OVCAR-5; [21]): > 50.1 µM; TGI (OVCAR-5; read-out: pTGI): > 50.1 µM; growth at 500 µM (OVCAR-8): 64%
